Test results published in article PMC10572855, “Phenotypic Test of Benzo[4,5]imidazo[1,2-c]pyrimidinone-Based Nucleoside and Non-Nucleoside Derivatives against DNA and RNA Viruses, Including Coronaviruses” (International Journal of Molecular Sciences, 2023).

How the values were obtained:
[1] = Cell growth inhibition in HEL299 cells, Coulter Counter; assay type: cell-based; conditions: human, 3 days of cell growth, read-out: Cytotoxicity Cell Growth (CC50)
Method: (§1) Cells were seeded at a rate of 5 × 10^3 cells/well into 96-well plates and allowed to proliferate for 24 h. Then, a medium containing different concentrations of the test compounds, starting at 100 mM, was added. After 3 days of incubation at 37 °C, the cell count was determined with a Beckman Coulter counter or, alternatively, cell viability was determined with the colorimetric formazan-based MTS assay. […] The cytotoxic effects of the compounds were also assessed by evaluating the MCC (minimum cytotoxic concentration that causes a microscopically detectable alteration of cell morphology).

[2] = system: TK+ VZV strain OKA; test: microbe, parasite or virus in culture; assay type: cell-based, Varicella zoster virus; conditions: Human alphaherpesvirus 3, HEL 299, read-out: Antiviral Activity (EC50) TK+ VZV Strain OKA
[3] = system: HEL299 cells; conditions: minimum cytotoxic concentration, microscopically detectable alteration of cell morphology
Method: as §1

[4] = system: TK- VZV strain 07-1; test: microbe, parasite or virus in culture; conditions: Human alphaherpesvirus 3, HEL 299, read-out: Antiviral Activity (EC50) TK− VZV Strain 07-1
[5] = system: HCoV 229E; test: Cytopathic effect reduction, HCoV 229E; assay type: cell-based, Human coronavirus 229E; conditions: Human coronavirus 229E; reduction of virus-induced cytopathic effect by 50%; virus input 100 TCID50; read-out: Antiviral Activity (EC50) HCoV 229E
[6] = system: SARS-CoV-2 UC-1074 (Wuhan); test: Cytopathic effect reduction, SARS-CoV-2 UC-1074 (Wuhan) in Vero cells; assay type: cell-based; conditions: Severe acute respiratory syndrome coronavirus 2, UC1074, CPE reduced by 50%, 100 TCID50, read-out: Antiviral Activity (EC50) UC-1074 (Wuhan)
[7] = in vitro; conditions: green monkey
[8] = system: RSV (Long); test: Cytopathic effect reduction, RSV (Long); assay type: cell-based, Respiratory syncytial virus; conditions: human respiratory syncytial virus; reduction of virus-induced cytopathic effect by 50%; virus input 100 TCID50; read-out: Antiviral Activity (EC50) RSV Long
[9] = molecular target: SARS-CoV-2 RdRp (nsp12, nsp7-nsp8) (Severe acute respiratory syndrome coronavirus 2, UniProt P0DTD1); test: In vitro transcription assay with SARS-CoV-2 RdRp; assay type: biochemical; conditions: RdRp 1 µM, RNA substrate 25 nM, 100 µM NTPs, 30 °C; read-out: IC50, inhibition of RdRp activity (RNA primer extension)
[10] = system: HCoV NL63; test: Cytopathic effect reduction, HCoV NL63; assay type: cell-based, Human coronavirus NL63; conditions: Human coronavirus NL63; reduction of virus-induced cytopathic effect by 50%; virus input 100 TCID50; read-out: Antiviral Activity (EC50) HCoV NL63
[11] = system: SARS-CoV-2 B1.1 529 BA.1 (Omicron); test: Cytopathic effect reduction, SARS-CoV-2 B1.1 529 BA.1 (Omicron) in Vero cells; assay type: cell-based; conditions: Severe acute respiratory syndrome coronavirus 2, CPE reduced by 50%, read-out: Antiviral Activity (EC50) B1.1 529 BA.1 (Omicron)
[12] = system: SARS-CoV-2 NVDBB-2220 (UK); test: Cytopathic effect reduction, SARS-CoV-2 NVDBB-2220 (UK) in Vero cells; assay type: cell-based; conditions: Severe acute respiratory syndrome coronavirus 2, CPE reduced by 50%, 100 TCID50, read-out: Antiviral Activity (EC50) NVDBB-2220 (UK)
[13] = system: SARS-CoV-2 860-J1 (Delta); test: Cytopathic effect reduction, SARS-CoV-2 860-J1 (Delta) in Vero cells; assay type: cell-based; conditions: Severe acute respiratory syndrome coronavirus 2, CPE reduced by 50%, 100 TCID50, read-out: Antiviral Activity (EC50) 860-J1 (Delta)
[14] = Cytotoxicity in Huh7 cells, MTS assay; assay type: cell-based, Human; conditions: human, Huh7 cells, cell growth reduced by 50%
Method: as §1

[15] = system: HCoV OC43; test: Cytopathic effect reduction, HCoV OC43; assay type: cell-based, Human coronavirus OC43; conditions: Betacoronavirus 1, OC43; reduction of virus-induced cytopathic effect by 50%; virus input 100 TCID50; read-out: Antiviral Activity (EC50) HCoV OC43
[16] = system: SARS-CoV-2 (all strains); test: Cytopathic effect reduction, various SARS-CoV-2 strains in Vero cells; assay type: cell-based; conditions: Severe acute respiratory syndrome coronavirus 2, read-out: EC50 against all SARS-CoV-2 strains
[17] = Cytotoxicity in HEL299 cells, MTS assay; assay type: cell-based, Human; conditions: human, HEL299 cells, cell growth reduced by 50%
Method: as §1

[18] = molecular target: T1, SARS-CoV-2 N-protein and stem-loop vgRNA fragment condensates (Severe acute respiratory syndrome coronavirus 2, UniProt P0DTC9); test: Cell-free LLPS assay, N-protein:vgRNA condensates; assay type: biochemical
T1 construct: His-tag; made in house

[19] = system: Vero cells; conditions: minimum cytotoxic concentration, microscopically detectable alteration of cell morphology
[20] = system: TK- VZV strain 07-1; test: in vitro; conditions: human
[21] = 20 µM compound, 3 µM N-protein, 6 µM RNA

| Structure (SMILES) | CC50 at 3 days [1] | EC50 [2] | Cytotoxicity Cell Morphology (MCC) [3] | EC50 [4] | EC50 [6] | EC50 [11] | effect on LLPS / condensates (summary in words) ([18]; 20 µM compound) | Cytotoxicity Cell Morphology (MCC) [19] | other results |
| --- | --- | --- | --- | --- | --- | --- | --- | --- | --- |
| O=c1[nH]c(=O)n([C@H]2C[C@H](O)[C@@H](CO)O2)cc1/C=C/Br [Brivudine, reference compound] | > 100 µM | 0.1 ± 0.07 µM | >100 μM | 0.14 ± 0.03 µM | – | – | – | – | – |
| COc1ccc(C(OC[C@H]2O[C@@H](n3ccc4nc5cc(O)ccc5n4c3=O)C[C@@H]2O)(c2ccccc2)c2ccc(OC)cc2)cc1 [Compound 3a, 2-((2R,4S,5R)-5-((bis(4-methoxyphenyl)(phenyl)methoxy)methyl)-4-hydroxytetrahydrofuran-2-yl)-7-hydroxybenzo[4,5]imidazo[1,2-c]pyrimidin-1(2H)-one] | – | > 4 µM | 20 μM | > 4 µM | 8.82 ± 0.21 µM | 10.6 ± 0.7 µM | robust LLPS inhibitor | – | EC50 [5]: 8.5 ± 0.36 µM; CC50 [7]: > 100 µM; EC50 [8]: 0.67 ± 0.23 µM; IC50 [9]: 94 ± 3 µM; EC50 [10]: > 100 µM; EC50 [12]: 8.92 ± 6.38 µM; EC50 [13]: 11.3 ± 3.5 µM; CC50 at 3 days [14]: < 0.8 µM; EC50 [15]: < 0.8 µM; EC50 [16]: ~10 µM; CC50 at 3 days [17]: > 100 µM; decrease of the average number of droplets [18, 21]: approximately 60%; decrease of the partitioning coefficient (droplet/solution N-protein concentration ratio) [18, 21]: 60–70%; median droplet diameter [18, 21]: 1.1 µm; EC50 ([18]; dose-dependent effect, 3 µM N-protein, 6 µM RNA, read-out: EC50 of inhibition of condensate formation (LLPS)): ≤ 10 µM |
| CC(C)C(=O)OC[C@H]1O[C@@H](n2ccc(NO)nc2=O)[C@H](O)[C@@H]1O [Molnupiravir] | – | – | – | – | 5.52 ± 0.28 µM | 5.2 ± 0.23 µM | – | >100 μM | CC50 [7]: > 100 µM; EC50 [12]: 3.08 ± 2.12 µM; EC50 [13]: 5.78 ± 0.29 µM |
| COc1ccc(C(OC[C@H]2O[C@@H](n3ccc4nc5cc(OC)ccc5n4c3=O)[C@H](O)[C@@H]2O)(c2ccccc2)c2ccc(OC)cc2)cc1 [Compound 7b, 2-((2R,3R,4S,5R)-5-((bis(4-methoxyphenyl)(phenyl)methoxy)methyl)-3,4-dihydroxytetrahydrofuran-2-yl)-7-methoxybenzo[4,5]imidazo[1,2-c]pyrimidin-1(2H)-one] | 10.3 ± 5.63 µM | 30.7 ± 4.68 µM | ≥100 μM | 7.13 ± 0.94 µM | > 20 µM | > 20 µM | – | >100 μM | – |
| COc1ccc(C(OC[C@H]2O[C@@H](n3ccc(N)nc3=O)C[C@@H]2O)(c2ccccc2)c2ccc(OC)cc2)cc1 [Compound 9a, 4-amino-1-((2R,4S,5R)-5-((bis(4-methoxyphenyl)(phenyl)methoxy)methyl)-4-hydroxytetrahydrofuran-2-yl)pyrimidin-2(1H)-one] | – | > 20 µM | 100 μM | > 20 µM | > 100 µM | > 100 µM | reduced droplet density but did not prevent LLPS | >100 μM | decrease in the partitioning coefficient [18, 21]: approximately 4 fold |
| COc1ccc2c(c1)nc1ccn([C@H]3C[C@H](O)[C@@H](CO)O3)c(=O)n12 [Compound 8a, 2-((2R,4S,5R)-4-hydroxy-5-(hydroxymethyl)tetrahydrofuran-2-yl)-7-methoxybenzo[4,5]imidazo[1,2-c]pyrimidin-1(2H)-one] | – | > 20 µM | 100 μM | > 20 µM | > 20 µM | > 20 µM | – | 100 μM | – |
| COc1ccc(C(OC[C@H]2O[C@@H](n3ccc4nc5cc(OC)ccc5n4c3=O)C[C@@H]2O)(c2ccccc2)c2ccc(OC)cc2)cc1 [Compound 7a, 2-((2R,4S,5R)-5-((bis(4-methoxyphenyl)(phenyl)methoxy)methyl)-4-hydroxytetrahydrofuran-2-yl)-7-methoxybenzo[4,5]imidazo[1,2-c]pyrimidin-1(2H)-one] | > 100 µM | 8.15 ± 3.59 µM | 100 μM | 3.28 ± 2.23 µM | > 20 µM | > 100 µM | caused no changes | >100 μM | selectivity ratio [20]: > 30 |
| COc1ccc(C(OC[C@H]2O[C@@H](n3ccc4nc5cc(O)ccc5n4c3=O)[C@H](O)[C@@H]2O)(c2ccccc2)c2ccc(OC)cc2)cc1 [Compound 3b, 2-((2R,3R,4S,5R)-5-((bis(4-methoxyphenyl)(phenyl)methoxy)methyl)-3,4-dihydroxytetrahydrofuran-2-yl)-7-hydroxybenzo[4,5]imidazo[1,2-c]pyrimidin-1(2H)-one] | – | > 4 µM | 20 μM | > 4 µM | > 20 µM | > 20 µM | minor | 20 μM | EC50 [5]: 4.1 ± 2 µM; EC50 [8]: 5.7 ± 0.8 µM; IC50 [9]: 95 ± 4 µM; EC50 [10]: > 100 µM; CC50 at 3 days [14]: < 0.8 µM; EC50 [15]: < 0.8 µM; CC50 at 3 days [17]: > 20 µM |
| COc1ccc(C(OC[C@H]2O[C@@H](n3ccc(N)nc3=O)[C@H](O)[C@@H]2O)(c2ccccc2)c2ccc(OC)cc2)cc1 [Compound 9b, 4-amino-1-((2R,3R,4S,5R)-5-((bis(4-methoxyphenyl)(phenyl)methoxy)methyl)-3,4-dihydroxytetrahydrofuran-2-yl)pyrimidin-2(1H)-one] | – | > 4 µM | ≥20 μM | > 20 µM | > 20 µM | > 20 µM | – | 100 μM | – |
| COc1ccc2c(c1)nc1ccn([C@@H]3O[C@H](CO)[C@@H](O)[C@H]3O)c(=O)n12 [Compound 8b, 2-((2R,3R,4S,5R)-3,4-dihydroxy-5-(hydroxymethyl)tetrahydrofuran-2-yl)-7-methoxybenzo[4,5]imidazo[1,2-c]pyrimidin-1(2H)-one] | – | > 20 µM | 100 μM | > 20 µM | > 20 µM | > 20 µM | – | 100 μM | – |
| Nc1nc2c(ncn2COCCO)c(=O)[nH]1 [Aciclovir, reference compound] | > 100 µM | – | >100 μM | – | – | – | – | – | – |
| CCC(CC)COC(=O)[C@H](C)N[P@](=O)(OC[C@H]1O[C@@](C#N)(c2ccc3c(N)ncnn23)[C@H](O)[C@@H]1O)Oc1ccccc1 [Remdesivir, reference compound] | – | – | – | – | 1.96 ± 1 µM | 0.91 ± 0.17 µM | – | ≥40 μM | EC50 [5]: 0.03 µM; CC50 [7]: ≥ 40 µM; EC50 [8]: 0.02 µM; EC50 [10]: 0.03 µM; EC50 [12]: 0.72 ± 0.15 µM; EC50 [13]: 3.23 ± 0.61 µM; CC50 at 3 days [14]: > 10 µM; EC50 [15]: 0.03 µM; CC50 at 3 days [17]: > 10 µM |
